# Legend:
# Salmonella enterica = test: Antibacterial activity against Salmonella enterica ATCC 6539 assessed as microbial cell viability incubated for 24 hr by quantification of ATP multimode plate reader method; format: functional
# [1] = Plasma protein binding in human measured at 150 uM preincubated for 30 mins followed by addition of dialysis buffer measured after 4 hrs by LC-MS/MS analysis; format: ADME, cell-free; conditions: read-out: PPB (converted)
# [2] = Acute toxicity in Swiss albino mouse assessed as lethal dose administered orally daily for 14 days; conditions: in vivo, route po, time 14 day
# [3] = Metabolic stability in mouse liver microsomes measured at 1 uM after 30 mins by LC-MS/MS analysis; format: ADME, Microsome; conditions: read-out: Stability
# [4] = Solubility of compound in DMSO at pH 4.5 after 5 mins measured by HPLC analysis; format: physicochemical
# [5] = Solubility of compound in DMSO at pH 1.2 after 5 mins measured by HPLC analysis; format: physicochemical
# [6] = Metabolic stability in human liver microsomes measured at 1 uM after 30 mins by LC-MS/MS analysis; format: ADME, Microsome; conditions: read-out: Stability
# [7] = Stability in human plasma measured after 60 mins LC-MS/MS analysis; format: ADME, cell-free; conditions: read-out: Stability
# [8] = Solubility of compound in DMSO at pH 7.4 after 5 mins measured by HPLC analysis; format: physicochemical
# [9] = Acute toxicity in Swiss albino mouse assessed as mortality at 2 g/Kg, po administered daily for 14 days; format: organism-based; conditions: in vivo, 2000 mg/kg, 336 h, time 14 day
# [10] = Solubility of compound in DMSO at pH 2.2 after 5 mins measured by HPLC analysis; format: physicochemical
# [11] = Solubility of compound in DMSO at pH 10.2 after 5 mins measured by HPLC analysis; format: physicochemical
structure (smiles),measurement,setting,value
CC(C)=CCn1c(=O)c(=O)n(C[C@H](O)[C@H](O)[C@H](O)CO)c2cc(C)c(C)cc21,MIC,Salmonella enterica,16 µg/mL
Cn1nnc(Cn2c(=O)c(=O)n3c4c(cccc42)C(C)(C)CC3)n1,MIC,Salmonella enterica,16 µg/mL
CC1(C)CCn2c(=O)c(=O)n(CCO)c3cccc1c32,MIC,Salmonella enterica,24 µg/mL
Cc1cc2c3c(c1C)C(C)(C)CCn3c(=O)c(=O)n2C[C@H](O)[C@H](O)[C@H](O)CO,"fraction unbound at 4 h, 150 µM",[1],0.412
same,LD50 at 336 h,[2],> 2000 mg/kg
same,"remaining at 0.5 h, 1 µM",[3],99.6%
same,MIC,Salmonella enterica,8 µg/mL
same,solubility at 5 min,[4],50 µM
same,solubility at 5 min,[5],50.8 µM
same,"remaining at 0.5 h, 1 µM",[6],100%
same,remaining at 1 h,[7],100%
same,solubility at 5 min,[8],49.4 µM
same,Activity,[9],Non-Toxic
same,solubility at 5 min,[10],50.4 µM
same,solubility at 5 min,[11],49.3 µM
CCOC(=O)Cn1cc(Cn2c(=O)c(=O)n3c4c(cccc42)C(C)(C)CC3)nn1,MIC,Salmonella enterica,16 µg/mL
CC1(C)CCn2c(=O)n(Cc3cn(CCO)nn3)c3cccc1c32,MIC,Salmonella enterica,16 µg/mL
CC1(C)CCn2c(=O)n(Cc3nn[nH]n3)c3cccc1c32,MIC,Salmonella enterica,> 32 µg/mL
CO[C@@H]1O[C@H](Cn2cc(Cn3c(=O)c(=O)n4c5c(cccc53)C(C)(C)CC4)nn2)[C@H]2OC(=O)O[C@@H]12,MIC,Salmonella enterica,32 µg/mL
CCOC(=O)Cn1c(=O)c(=O)n2c3c(cccc31)C(C)(C)CC2,MIC,Salmonella enterica,8 µg/mL
CC1(C)CCn2c(=O)c(=O)n(C[C@H](O)[C@H](O)[C@H](O)CO)c3cccc1c32,MIC,Salmonella enterica,16 µg/mL
CO[C@@H]1O[C@H](Cn2c(=O)n3c4c(cccc42)C(C)(C)CC3)[C@H]2OC(=O)O[C@@H]12,MIC,Salmonella enterica,32 µg/mL
CO[C@@H]1O[C@H](Cn2cc(Cn3c(=O)c(=O)n4c5c(cccc53)C(C)(C)CC4)nn2)[C@@H](O)[C@H]1O,MIC,Salmonella enterica,32 µg/mL
CCOC(=O)Cn1c(=O)c(=O)n(C[C@H](O)[C@H](O)[C@H](O)CO)c2cc(C)c(C)cc21,MIC,Salmonella enterica,16 µg/mL
CC1(C)CCn2c(=O)c(=O)n(Cc3nn[nH]n3)c3cccc1c32,"fraction unbound at 4 h, 150 µM",[1],0.0205
same,"remaining at 0.5 h, 1 µM",[3],96.1%
same,MIC,Salmonella enterica,4 µg/mL
same,solubility at 5 min,[4],50.5 µM
same,solubility at 5 min,[5],51.8 µM
same,"remaining at 0.5 h, 1 µM",[6],98.9%
same,remaining at 1 h,[7],99.9%
same,solubility at 5 min,[8],51.8 µM
same,solubility at 5 min,[10],51.2 µM
same,solubility at 5 min,[11],51.8 µM
CC1(C)CCn2c(=O)n(CC(O)CO)c3cccc1c32 (configuration not stated),MIC,Salmonella enterica,16 µg/mL
Cc1cc2c(cc1C)n(C[C@H](O)[C@H](O)[C@H](O)CO)c(=O)c(=O)n2CC=C1CCCCC1,MIC,Salmonella enterica,32 µg/mL
CCOC(=O)Cn1cc(Cn2c(=O)n3c4c(cccc42)C(C)(C)CC3)nn1,MIC,Salmonella enterica,8 µg/mL
Cc1cc2c(cc1C)n(C[C@H](O)[C@H](O)[C@H](O)CO)c(=O)c(=O)n2CCC1CCCCC1,MIC,Salmonella enterica,8 µg/mL
CC1(C)CCn2c(=O)c(OC[C@H](O)[C@H](O)[C@H](O)CO)nc3cccc1c32,MIC,Salmonella enterica,16 µg/mL
CC1(C)CCn2c(=O)[nH]c(=O)c3cccc1c32,MIC,Salmonella enterica,16 µg/mL
Cc1cc2c3c(c1C)C(C)(C)CCn3c(=O)c(=O)n2CC(O)CO (configuration not stated),MIC,Salmonella enterica,16 µg/mL
CC1(C)CCn2c(=O)n(Cc3cn(C[C@H](O)[C@H](O)[C@H](O)CO)nn3)c3cccc1c32,MIC,Salmonella enterica,32 µg/mL
CO[C@@H]1O[C@H](Cn2c(=O)n3c4c(cccc42)C(C)(C)CC3)[C@@H](O)[C@H]1O,"fraction unbound at 4 h, 150 µM",[1],0.338
same,"remaining at 0.5 h, 1 µM",[3],74.3%
same,MIC,Salmonella enterica,2 µg/mL
same,solubility at 5 min,[4],48.8 µM
same,solubility at 5 min,[5],41.2 µM
same,"remaining at 0.5 h, 1 µM",[6],90%
same,remaining at 1 h,[7],98%
same,solubility at 5 min,[8],48.5 µM
same,solubility at 5 min,[10],48.4 µM
same,solubility at 5 min,[11],48.6 µM
CC1(C)CCn2c(=O)n(C[C@H](O)[C@H](O)[C@H](O)CO)c3cccc1c32,"fraction unbound at 4 h, 150 µM",[1],0.578
same,"remaining at 0.5 h, 1 µM",[3],96.4%
same,MIC,Salmonella enterica,4 µg/mL
same,solubility at 5 min,[4],47.8 µM
same,solubility at 5 min,[5],48.2 µM
same,"remaining at 0.5 h, 1 µM",[6],100%
same,remaining at 1 h,[7],99.9%
same,solubility at 5 min,[8],47.4 µM
same,solubility at 5 min,[10],48 µM
same,solubility at 5 min,[11],47.6 µM
Cc1cc2[nH]c(=O)c(=O)n(C[C@H](O)[C@H](O)[C@H](O)CO)c2cc1C,MIC,Salmonella enterica,> 32 µg/mL
CC1(C)CCn2c(=O)c(=O)n(CCCCO)c3cccc1c32,MIC,Salmonella enterica,32 µg/mL
CC1(C)CCn2c(=O)c(=O)n(CC(N)=O)c3cccc1c32,MIC,Salmonella enterica,24 µg/mL
CC1(C)CCn2c(=O)n(CCCO)c3cccc1c32,MIC,Salmonella enterica,> 32 µg/mL
CC1(C)CCn2c(=O)c(=O)n(Cc3ccccc3)c3cccc1c32,MIC,Salmonella enterica,32 µg/mL
CO[C@@H]1O[C@H](Cn2c(=O)c(=O)n3c4c(cccc42)C(C)(C)CC3)[C@@H](O)[C@H]1O,MIC,Salmonella enterica,16 µg/mL
CO[C@@H]1O[C@H](Cn2c(=O)n3c4c(cccc42)C(C)(C)CC3)[C@@H](OC)[C@H]1OC,MIC,Salmonella enterica,> 32 µg/mL
CC1(C)CCn2c(=O)c(=O)n(CC(=O)O)c3cccc1c32,MIC,Salmonella enterica,16 µg/mL
C=CCn1c(=O)c(=O)n(C[C@H](O)[C@H](O)[C@H](O)CO)c2cc(C)c(C)cc21,MIC,Salmonella enterica,16 µg/mL
CC1(C)CCn2c(=O)c(=O)[nH]c3cccc1c32,MIC,Salmonella enterica,16 µg/mL
CC1(C)CCn2c(=O)n(C[C@H](O)[C@@H](O)CO)c3cccc1c32,MIC,Salmonella enterica,16 µg/mL
CCn1c(=O)c(=O)n(C[C@H](O)[C@H](O)[C@H](O)CO)c2cc(C)c(C)cc21,MIC,Salmonella enterica,> 32 µg/mL
C#CCn1c(=O)c2cccc3c2n(c1=O)CCC3(C)C,MIC,Salmonella enterica,24 µg/mL
CCOC(=O)Cn1cc(Cn2c(=O)c3cccc4c3n(c2=O)CCC4(C)C)nn1,MIC,Salmonella enterica,> 32 µg/mL
CCCCCn1c(=O)c(=O)n2c3c(cccc31)C(C)(C)CC2,MIC,Salmonella enterica,32 µg/mL
Cc1cc2nc(OC[C@H](O)[C@H](O)[C@H](O)CO)c(=O)n3c2c(c1C)C(C)(C)CC3,MIC,Salmonella enterica,8 µg/mL
CC1(C)CCn2c(=O)c(=O)n(Cc3ccccn3)c3cccc1c32,MIC,Salmonella enterica,24 µg/mL
CC1(C)CCn2c(=O)c(=O)n(CC(O)CO)c3cccc1c32 (configuration not stated),MIC,Salmonella enterica,8 µg/mL
CC1(C)CCn2c(=O)c(=O)n(CCCO)c3cccc1c32,"fraction unbound at 4 h, 150 µM",[1],0.389
same,LD50 at 336 h,[2],> 2000 mg/kg
same,"remaining at 0.5 h, 1 µM",[3],96.1%
same,MIC,Salmonella enterica,1 µg/mL
same,solubility at 5 min,[4],50.1 µM
same,solubility at 5 min,[5],51.2 µM
same,"remaining at 0.5 h, 1 µM",[6],100%
same,remaining at 1 h,[7],82.4%
same,solubility at 5 min,[8],50.1 µM
same,Activity,[9],Non-Toxic
same,solubility at 5 min,[10],50.8 µM
same,solubility at 5 min,[11],50.2 µM
CC1(C)CCn2c(=O)n(Cc3cn([C@@H]4O[C@H](CO)[C@@H](O)[C@H]4O)nn3)c3cccc1c32,MIC,Salmonella enterica,32 µg/mL
"CC1(C)CCn2c(=O)c(OCC(O)CO)nc3cccc1c32 (single isomer, unassigned)",MIC,Salmonella enterica,16 µg/mL
"CO[C@@H]1O[C@H](Cn2cc(Cn3c(=O)c4cccc5c4n(c3=O)CCC5(C)C)nn2)[C@@H](O)[C@H]1O (single isomer, unassigned)",MIC,Salmonella enterica,> 32 µg/mL
"CC1(C)CCn2c(=O)n(Cc3cn([C@@H]4OC(CO)C(O)C4O)nn3)c(=O)c3cccc1c32 (single isomer, unassigned)",MIC,Salmonella enterica,> 32 µg/mL
"CC1(C)CCn2c(=O)c(=O)n(Cc3cn([C@@H]4OC(CO)C(O)C4O)nn3)c3cccc1c32 (single isomer, unassigned)",MIC,Salmonella enterica,32 µg/mL

# From ChEMBL document CHEMBL5154865, “Antibiotic natural product hunanamycin A: Lead identification towards anti-Salmonella agents” (Eur J Med Chem, 2022)
